Experimental data from patent US9969694B2, “N-(arylalkyl)-N′-pyrazolyl-urea, thiourea, guanidine and cyanoguanidine compounds as TrkA kinase inhibitors” (Array BioPharma Inc., priority 2012, dated 2018).
Blank lines part the entries; values can stand above or below the compound they belong to.

Experiments:
Test in all cases: Off-Target Kinase Profiling
Assay type in all cases: biochemical
Conditions in all cases: 10 μM; ATP near Km
ALK4 = biological target: T1, ALK4 (Homo sapiens, UniProt P36896)
T1 construct: purchased Millipore (KinaseProfiler service)
Protocol: (§1) Representative compounds of the invention (Examples 33 and 10) were tested for off-target kinase activity at a concentration of 10 μM by Millipore, Inc. in their KinaseProfiler™ service against all the kinases available in their full kinase panel. Compounds were run in duplicate at a concentration of ATP near the Km for each individual kinase according to Millipore's specifications. The results are shown in Table B. Data are reported as percent of control (POC) and are the average of the two replicates.

CDK3/cyclinE = biological target: T2, CDK3/cyclinE (Homo sapiens, UniProt Q00526)
T2 construct: purchased Millipore, Inc. (KinaseProfiler service)
Protocol: as §1

CK1gamma1 = biological target: T3, CK1gamma1 (Homo sapiens, UniProt Q9HCP0)
T3 construct: purchased Millipore, Inc. (KinaseProfiler service)
Protocol: as §1

CK2alpha2 = biological target: T4, CK2alpha2 (Homo sapiens, UniProt P19784)
T4 construct: purchased Millipore, Inc. (KinaseProfiler service)
Protocol: as §1

CLK3 = biological target: T5, CLK3 (Homo sapiens, UniProt P49761)
T5 construct: purchased Millipore, Inc. (KinaseProfiler service)
Protocol: as §1

DRAK1 = biological target: T6, DRAK1 (Homo sapiens, UniProt Q9UEE5)
T6 construct: purchased Millipore, Inc. (KinaseProfiler service)
Protocol: as §1

EphA4 = biological target: T7, EphA4 (Homo sapiens, UniProt P54764)
T7 construct: purchased Millipore, Inc. (KinaseProfiler service)
Protocol: as §1

FGFR4 = biological target: T8, FGFR4 (Homo sapiens, UniProt P22455)
T8 construct: purchased Millipore, Inc. (KinaseProfiler service)
Protocol: as §1

Fes = biological target: T9, Fes (Homo sapiens, UniProt P07332)
T9 construct: purchased Millipore, Inc. (KinaseProfiler service)
Protocol: as §1

GRK6 = biological target: T10, GRK6 (Homo sapiens, UniProt P43250)
T10 construct: purchased Millipore, Inc. (KinaseProfiler service)
Protocol: as §1

GRK7 = biological target: T11, GRK7 (Homo sapiens, UniProt Q8WTQ7)
T11 construct: purchased Millipore, Inc. (KinaseProfiler service)
Protocol: as §1

Haspin = biological target: T12, Haspin (Homo sapiens, UniProt Q8TF76)
T12 construct: purchased Millipore, Inc. (KinaseProfiler service)
Protocol: as §1

JAK2 = biological target: T13, JAK2 (Homo sapiens, UniProt O60674)
T13 construct: purchased Millipore, Inc. (KinaseProfiler service)
Protocol: as §1

JNK1alpha1 = biological target: T14, JNK1alpha1 (Homo sapiens, UniProt P45983)
T14 construct: purchased Millipore, Inc. (KinaseProfiler service)
Protocol: as §1

JNK3 = biological target: T15, JNK3 (Homo sapiens, UniProt P53779)
T15 construct: purchased Millipore, Inc. (KinaseProfiler service)
Protocol: as §1

KDR = biological target: T16, KDR (Homo sapiens, UniProt P35968)
T16 construct: purchased Millipore, Inc. (KinaseProfiler service)
Protocol: as §1

LIMK1 = biological target: T17, LIMK1 (Homo sapiens, UniProt P53667)
T17 construct: purchased Millipore, Inc. (KinaseProfiler service)
Protocol: as §1

LKB1 = biological target: T18, LKB1 (Homo sapiens, UniProt Q15831)
T18 construct: purchased Millipore, Inc. (KinaseProfiler service)
Protocol: as §1

Lck = biological target: T19, Lck (Homo sapiens, UniProt P06239)
T19 construct: purchased Millipore, Inc. (KinaseProfiler service)
Protocol: as §1

MAP4K2 = biological target: T20, MAP4K2 (Homo sapiens, UniProt Q12851)
T20 construct: purchased Millipore, Inc. (KinaseProfiler service)
Protocol: as §1

MARK2 = biological target: T21, MARK2 (Homo sapiens, UniProt Q7KZI7)
T21 construct: purchased Millipore, Inc. (KinaseProfiler service)
Protocol: as §1

MEK1 = biological target: T22, MEK1 (Homo sapiens, UniProt Q02750)
T22 construct: purchased Millipore, Inc. (KinaseProfiler service)
Protocol: as §1

MRCKalpha = biological target: T23, MRCKalpha (Homo sapiens, UniProt Q5VT25)
T23 construct: purchased Millipore, Inc. (KinaseProfiler service)
Protocol: as §1

MuSK = biological target: T24, MuSK (Homo sapiens, UniProt O15146)
T24 construct: purchased Millipore, Inc. (KinaseProfiler service)
Protocol: as §1

NEK11 = biological target: T25, NEK11 (Homo sapiens, UniProt Q8NG66)
T25 construct: purchased Millipore, Inc. (KinaseProfiler service)
Protocol: as §1

NEK2 = biological target: T26, NEK2 (Homo sapiens, UniProt P51955)
T26 construct: purchased Millipore, Inc. (KinaseProfiler service)
Protocol: as §1

PDGFRbeta = biological target: T27, PDGFRbeta (Homo sapiens, UniProt P09619)
T27 construct: purchased Millipore, Inc. (KinaseProfiler service)
Protocol: as §1

PKCalpha = biological target: T28, PKCalpha (Homo sapiens, UniProt P17252)
T28 construct: purchased Millipore, Inc. (KinaseProfiler service)
Protocol: as §1

PKCeta = biological target: T29, PKCeta (Homo sapiens, UniProt P24723)
T29 construct: purchased Millipore, Inc. (KinaseProfiler service)
Protocol: as §1

PKD2 = biological target: T30, PKD2 (Homo sapiens, UniProt Q9BZL6)
T30 construct: purchased Millipore, Inc. (KinaseProfiler service)
Protocol: as §1

PRK2 = biological target: T31, PRK2 (Homo sapiens, UniProt Q16513)
T31 construct: purchased Millipore, Inc. (KinaseProfiler service)
Protocol: as §1

Plk1 = biological target: T32, Plk1 (Homo sapiens, UniProt P53350)
T32 construct: purchased Millipore, Inc. (KinaseProfiler service)
Protocol: as §1

Plk2 = biological target: T33, Plk2 (Homo sapiens, UniProt Q9NYY3)
T33 construct: purchased Millipore, Inc. (KinaseProfiler service)
Protocol: as §1

Rsk1 = biological target: T34, Rsk1 (Homo sapiens, UniProt Q15418)
T34 construct: purchased Millipore, Inc. (KinaseProfiler service)
Protocol: as §1

Rsk3 = biological target: T35, Rsk3 (Homo sapiens, UniProt Q15349)
T35 construct: purchased Millipore, Inc. (KinaseProfiler service)
Protocol: as §1

SRC = biological target: T36, SRC (Homo sapiens, UniProt P12931)
T36 construct: purchased Millipore, Inc. (KinaseProfiler service)
Protocol: as §1

SRPK1 = biological target: T37, SRPK1 (Homo sapiens, UniProt Q96SB4)
T37 construct: purchased Millipore, Inc. (KinaseProfiler service)
Protocol: as §1

TAO3 = biological target: T38, TAO3 (Homo sapiens, UniProt Q9H2K8)
T38 construct: purchased Millipore, Inc. (KinaseProfiler service)
Protocol: as §1

TrkB = biological target: T39, TrkB (Homo sapiens, UniProt Q16620)
T39 construct: purchased Millipore, Inc. (KinaseProfiler service)
Protocol: as §1

ULK2 = biological target: T40, ULK2 (Homo sapiens, UniProt Q8IYT8)
T40 construct: purchased Millipore, Inc. (KinaseProfiler service)
Protocol: as §1

p70S6K = biological target: T41, p70S6K (Homo sapiens, UniProt P23443)
T41 construct: purchased Millipore, Inc. (KinaseProfiler service)
Protocol: as §1

T15 sequence (P53779 whole entry): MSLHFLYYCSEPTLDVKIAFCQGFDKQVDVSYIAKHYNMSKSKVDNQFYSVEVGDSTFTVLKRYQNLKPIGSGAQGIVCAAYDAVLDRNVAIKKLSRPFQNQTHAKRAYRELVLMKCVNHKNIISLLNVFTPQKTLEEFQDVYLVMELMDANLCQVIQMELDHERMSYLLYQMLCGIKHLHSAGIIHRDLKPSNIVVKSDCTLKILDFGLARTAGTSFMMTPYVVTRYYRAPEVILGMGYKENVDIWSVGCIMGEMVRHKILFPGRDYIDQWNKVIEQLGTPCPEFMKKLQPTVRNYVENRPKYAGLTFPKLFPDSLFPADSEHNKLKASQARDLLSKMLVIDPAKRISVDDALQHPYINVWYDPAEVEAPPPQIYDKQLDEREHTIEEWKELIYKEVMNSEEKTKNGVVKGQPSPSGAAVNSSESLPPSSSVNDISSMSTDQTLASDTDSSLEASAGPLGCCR
T27 sequence (P09619 33-1106): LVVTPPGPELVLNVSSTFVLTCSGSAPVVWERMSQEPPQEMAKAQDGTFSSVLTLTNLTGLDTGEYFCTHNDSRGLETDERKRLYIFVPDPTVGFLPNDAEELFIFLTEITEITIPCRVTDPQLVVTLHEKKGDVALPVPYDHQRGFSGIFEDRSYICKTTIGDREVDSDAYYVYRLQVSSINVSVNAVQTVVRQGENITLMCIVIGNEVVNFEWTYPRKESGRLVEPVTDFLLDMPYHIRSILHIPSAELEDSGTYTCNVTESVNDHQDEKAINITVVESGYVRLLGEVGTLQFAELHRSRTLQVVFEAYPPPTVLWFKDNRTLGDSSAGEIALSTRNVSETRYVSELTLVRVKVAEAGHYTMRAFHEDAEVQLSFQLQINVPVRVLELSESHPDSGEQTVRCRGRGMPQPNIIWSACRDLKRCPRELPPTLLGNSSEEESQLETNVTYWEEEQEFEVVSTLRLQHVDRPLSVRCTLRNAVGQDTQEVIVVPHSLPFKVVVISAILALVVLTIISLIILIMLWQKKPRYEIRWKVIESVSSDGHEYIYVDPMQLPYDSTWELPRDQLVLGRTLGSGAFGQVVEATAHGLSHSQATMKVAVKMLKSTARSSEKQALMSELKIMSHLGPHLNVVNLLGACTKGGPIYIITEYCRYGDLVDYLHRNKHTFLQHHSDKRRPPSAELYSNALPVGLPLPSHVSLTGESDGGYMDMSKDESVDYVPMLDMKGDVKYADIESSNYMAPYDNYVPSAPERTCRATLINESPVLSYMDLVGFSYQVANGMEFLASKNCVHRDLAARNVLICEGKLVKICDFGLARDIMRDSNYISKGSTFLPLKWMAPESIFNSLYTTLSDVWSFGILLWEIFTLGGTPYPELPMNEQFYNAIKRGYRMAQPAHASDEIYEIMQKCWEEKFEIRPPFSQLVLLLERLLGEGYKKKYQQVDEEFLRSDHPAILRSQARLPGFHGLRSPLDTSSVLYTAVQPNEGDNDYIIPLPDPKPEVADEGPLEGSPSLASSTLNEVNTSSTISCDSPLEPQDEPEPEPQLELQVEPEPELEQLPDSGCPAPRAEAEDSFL
T4 sequence (P19784 whole entry): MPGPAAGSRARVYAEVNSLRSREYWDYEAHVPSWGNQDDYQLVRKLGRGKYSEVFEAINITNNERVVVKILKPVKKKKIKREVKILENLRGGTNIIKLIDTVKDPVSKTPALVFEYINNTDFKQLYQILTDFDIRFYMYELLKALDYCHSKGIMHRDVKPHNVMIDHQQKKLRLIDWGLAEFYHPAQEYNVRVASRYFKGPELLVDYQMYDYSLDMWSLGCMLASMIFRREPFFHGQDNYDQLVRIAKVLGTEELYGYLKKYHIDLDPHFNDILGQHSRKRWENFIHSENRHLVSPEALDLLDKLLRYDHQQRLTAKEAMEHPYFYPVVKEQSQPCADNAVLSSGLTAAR
T18 sequence (Q15831 whole entry): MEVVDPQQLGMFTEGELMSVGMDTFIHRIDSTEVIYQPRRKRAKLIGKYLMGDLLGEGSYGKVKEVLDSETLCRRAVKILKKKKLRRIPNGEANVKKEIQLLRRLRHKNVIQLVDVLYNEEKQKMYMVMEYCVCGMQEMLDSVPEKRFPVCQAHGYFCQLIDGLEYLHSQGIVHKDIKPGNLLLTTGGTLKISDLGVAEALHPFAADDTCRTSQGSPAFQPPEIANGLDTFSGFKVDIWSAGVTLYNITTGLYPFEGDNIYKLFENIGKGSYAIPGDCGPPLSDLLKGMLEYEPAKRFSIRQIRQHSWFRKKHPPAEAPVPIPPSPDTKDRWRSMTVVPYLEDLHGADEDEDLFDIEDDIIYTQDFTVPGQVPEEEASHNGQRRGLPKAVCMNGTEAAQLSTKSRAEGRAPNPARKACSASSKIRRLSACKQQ
T18 sequence (Q7RTN6 whole entry partner): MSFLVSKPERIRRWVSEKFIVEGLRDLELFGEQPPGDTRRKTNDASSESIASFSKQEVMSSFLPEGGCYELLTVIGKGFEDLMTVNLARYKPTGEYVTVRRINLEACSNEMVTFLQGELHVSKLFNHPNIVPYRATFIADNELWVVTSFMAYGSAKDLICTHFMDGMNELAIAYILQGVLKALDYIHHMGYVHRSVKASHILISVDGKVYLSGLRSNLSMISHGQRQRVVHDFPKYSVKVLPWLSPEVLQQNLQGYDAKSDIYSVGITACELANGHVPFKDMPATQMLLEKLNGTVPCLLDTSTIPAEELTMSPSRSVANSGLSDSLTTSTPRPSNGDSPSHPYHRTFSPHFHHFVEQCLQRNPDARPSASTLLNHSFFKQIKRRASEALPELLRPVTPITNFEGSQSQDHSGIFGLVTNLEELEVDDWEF
T18 sequence (Q9Y376 whole entry partner): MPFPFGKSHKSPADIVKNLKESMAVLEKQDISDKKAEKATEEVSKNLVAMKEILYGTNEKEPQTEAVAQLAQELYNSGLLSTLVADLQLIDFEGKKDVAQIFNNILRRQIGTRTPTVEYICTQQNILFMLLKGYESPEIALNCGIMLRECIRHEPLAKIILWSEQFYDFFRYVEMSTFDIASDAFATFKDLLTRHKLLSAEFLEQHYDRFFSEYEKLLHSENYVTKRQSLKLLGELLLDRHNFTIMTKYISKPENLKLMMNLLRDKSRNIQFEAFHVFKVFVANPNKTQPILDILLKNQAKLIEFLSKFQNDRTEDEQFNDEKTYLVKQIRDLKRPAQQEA
T26 sequence (P51955 whole entry): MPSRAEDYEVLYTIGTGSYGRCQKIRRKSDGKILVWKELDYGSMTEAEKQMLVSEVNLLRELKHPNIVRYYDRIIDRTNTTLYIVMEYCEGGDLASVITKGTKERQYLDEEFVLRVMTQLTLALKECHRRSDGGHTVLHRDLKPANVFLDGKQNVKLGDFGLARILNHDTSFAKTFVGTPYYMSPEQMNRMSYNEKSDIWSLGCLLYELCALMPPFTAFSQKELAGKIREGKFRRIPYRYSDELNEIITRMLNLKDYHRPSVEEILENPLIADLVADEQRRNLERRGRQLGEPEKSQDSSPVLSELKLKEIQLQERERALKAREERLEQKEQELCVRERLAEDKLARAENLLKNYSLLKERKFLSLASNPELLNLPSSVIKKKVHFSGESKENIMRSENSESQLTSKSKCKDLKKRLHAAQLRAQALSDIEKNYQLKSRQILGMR
T17 sequence (P53667 whole entry): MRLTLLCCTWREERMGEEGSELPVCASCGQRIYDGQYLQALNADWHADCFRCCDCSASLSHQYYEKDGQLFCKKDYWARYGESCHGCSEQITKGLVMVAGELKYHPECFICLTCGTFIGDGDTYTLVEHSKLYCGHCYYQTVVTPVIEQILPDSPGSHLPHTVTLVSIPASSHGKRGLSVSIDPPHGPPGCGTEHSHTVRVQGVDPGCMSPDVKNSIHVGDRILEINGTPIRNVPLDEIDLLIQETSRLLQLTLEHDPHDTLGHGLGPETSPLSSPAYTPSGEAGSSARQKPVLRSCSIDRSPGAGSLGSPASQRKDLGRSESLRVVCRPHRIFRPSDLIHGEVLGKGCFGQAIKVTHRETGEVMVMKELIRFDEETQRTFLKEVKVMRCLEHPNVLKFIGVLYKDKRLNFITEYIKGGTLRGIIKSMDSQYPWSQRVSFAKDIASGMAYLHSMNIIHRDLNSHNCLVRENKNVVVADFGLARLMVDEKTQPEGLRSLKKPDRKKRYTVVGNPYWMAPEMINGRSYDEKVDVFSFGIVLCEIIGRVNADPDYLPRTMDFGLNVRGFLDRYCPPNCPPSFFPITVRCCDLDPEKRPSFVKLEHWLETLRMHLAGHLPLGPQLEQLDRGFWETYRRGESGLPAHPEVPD
T37 sequence (Q96SB4 whole entry): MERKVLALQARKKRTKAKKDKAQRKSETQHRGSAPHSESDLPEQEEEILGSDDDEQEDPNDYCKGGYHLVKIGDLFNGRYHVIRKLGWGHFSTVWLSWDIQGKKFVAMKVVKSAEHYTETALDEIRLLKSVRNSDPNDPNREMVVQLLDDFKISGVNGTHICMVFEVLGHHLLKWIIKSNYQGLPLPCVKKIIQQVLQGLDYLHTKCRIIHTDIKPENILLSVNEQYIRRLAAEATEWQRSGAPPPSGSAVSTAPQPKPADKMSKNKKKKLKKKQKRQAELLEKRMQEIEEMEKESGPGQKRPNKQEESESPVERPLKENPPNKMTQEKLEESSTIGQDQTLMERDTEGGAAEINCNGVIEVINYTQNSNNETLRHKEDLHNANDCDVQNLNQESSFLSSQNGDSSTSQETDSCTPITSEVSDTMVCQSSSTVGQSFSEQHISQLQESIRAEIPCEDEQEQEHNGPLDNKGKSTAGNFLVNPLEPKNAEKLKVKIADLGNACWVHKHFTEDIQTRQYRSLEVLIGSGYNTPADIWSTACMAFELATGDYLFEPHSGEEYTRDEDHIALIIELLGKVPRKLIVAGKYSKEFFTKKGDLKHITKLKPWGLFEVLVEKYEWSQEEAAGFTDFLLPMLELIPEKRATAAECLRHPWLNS

Avg POC ALK4 (ALK4): 111.5 POC
Avg POC CDK3/cyclinE (CDK3/cyclinE): 90.5 POC
Avg POC CK1gamma1 (CK1gamma1): 79 POC
Avg POC CK2alpha2 (CK2alpha2): 109 POC
Avg POC CLK3 (CLK3): 104.5 POC
Avg POC DRAK1 (DRAK1): 92.5 POC
Avg POC EphA4 (EphA4): 105.5 POC
Avg POC FGFR4 (FGFR4): 118 POC
Avg POC Fes (Fes): 90 POC
Avg POC GRK6 (GRK6): 97.5 POC
Avg POC GRK7 (GRK7): 105 POC
Avg POC Haspin (Haspin): 80.5 POC
Avg POC JAK2 (JAK2): 106.5 POC
Avg POC JNK1alpha1 (JNK1alpha1): 98 POC
Avg POC JNK3 (JNK3): 74 POC
Avg POC KDR (KDR): 97.5 POC
Avg POC LIMK1 (LIMK1): 92 POC
Avg POC LKB1 (LKB1): 89.5 POC
Avg POC Lck (Lck): 75.5 POC
Avg POC MAP4K2 (MAP4K2): 95.5 POC
Avg POC MARK2 (MARK2): 98.5 POC
Avg POC MEK1 (MEK1): 121 POC
Avg POC MRCKalpha (MRCKalpha): 122 POC
Avg POC MuSK (MuSK): 95 POC
Avg POC NEK11 (NEK11): 102 POC
Avg POC NEK2 (NEK2): 98 POC
Avg POC PDGFRbeta (PDGFRbeta): 106 POC
Avg POC PKCalpha (PKCalpha): 100.5 POC
Avg POC PKCeta (PKCeta): 86.5 POC
Avg POC PKD2 (PKD2): 106 POC
Avg POC PRK2 (PRK2): 88.5 POC
Avg POC Plk1 (Plk1): 84 POC
Avg POC Plk2 (Plk2): 101 POC
Avg POC Rsk1 (Rsk1): 96.5 POC
Avg POC Rsk3 (Rsk3): 101 POC
Avg POC SRC (SRC): 96 POC
Avg POC SRPK1 (SRPK1): 116 POC
Avg POC TAO3 (TAO3): 88.5 POC
Avg POC TrkB (TrkB): 0.5 POC
Avg POC ULK2 (ULK2): 89 POC
Avg POC p70S6K (p70S6K): 111 POC
SMILES: COCc1ccc(C2CCC2)c(CNC(=O)Nc2c(C)c(-c3cnc(C)nc3)nn2-c2ccccc2)c1 [Example 10, 1-(2-cyclobutyl-5-(methoxymethyl)benzyl)-3-(4-methyl-3-(2-methylpyrimidin-5-yl)-1-phenyl-1H-pyrazol-5-yl)urea]

Avg POC ALK4 (ALK4): 106 POC
Avg POC CDK3/cyclinE (CDK3/cyclinE): 98.5 POC
Avg POC CK1gamma1 (CK1gamma1): 105.5 POC
Avg POC CK2alpha2 (CK2alpha2): 99.5 POC
Avg POC CLK3 (CLK3): 102 POC
Avg POC DRAK1 (DRAK1): 141.5 POC
Avg POC EphA4 (EphA4): 120 POC
Avg POC FGFR4 (FGFR4): 201.5 POC
Avg POC Fes (Fes): 109 POC
Avg POC GRK6 (GRK6): 99 POC
Avg POC GRK7 (GRK7): 103 POC
Avg POC Haspin (Haspin): 109 POC
Avg POC JAK2 (JAK2): 130 POC
Avg POC JNK1alpha1 (JNK1alpha1): 103 POC
Avg POC JNK3 (JNK3): 135 POC
Avg POC KDR (KDR): 139.5 POC
Avg POC LIMK1 (LIMK1): 91.5 POC
Avg POC LKB1 (LKB1): 90 POC
Avg POC Lck (Lck): 93 POC
Avg POC MAP4K2 (MAP4K2): 115.5 POC
Avg POC MARK2 (MARK2): 103.5 POC
Avg POC MEK1 (MEK1): 117 POC
Avg POC MRCKalpha (MRCKalpha): 147 POC
Avg POC MuSK (MuSK): 94.5 POC
Avg POC NEK11 (NEK11): 108 POC
Avg POC NEK2 (NEK2): 96 POC
Avg POC PDGFRbeta (PDGFRbeta): 166.5 POC
Avg POC PKCalpha (PKCalpha): 104.5 POC
Avg POC PKCeta (PKCeta): 98 POC
Avg POC PKD2 (PKD2): 106 POC
Avg POC PRK2 (PRK2): 106 POC
Avg POC Plk1 (Plk1): 93 POC
Avg POC Plk2 (Plk2): 102 POC
Avg POC Rsk1 (Rsk1): 119.5 POC
Avg POC Rsk3 (Rsk3): 103 POC
Avg POC SRC (SRC): 101 POC
Avg POC SRPK1 (SRPK1): 113.5 POC
Avg POC TAO3 (TAO3): 89.5 POC
Avg POC TrkB (TrkB): 0 POC
Avg POC ULK2 (ULK2): 98.5 POC
Avg POC p70S6K (p70S6K): 377 POC
SMILES: COCc1ccc(C(F)(F)F)c(CNC(=O)Nc2c(C)c(-c3cnn(C)c3)nn2-c2ccccc2)c1 [Example 33, 1-(1′,4-dimethyl-1-phenyl-1H,1′H-[3,4′-bipyrazol]-5-yl)-3-(5-(methoxymethyl)-2-(trifluoromethyl)benzyl)urea]
